In brackets after ≈: the same amount, converted by molar mass.
Experiments:
[1] = tested on: Plasmodium falciparum; assay: Antimalarial activity against chloroquine-sensitive Plasmodium falciparum D6; assay type: functional, organism-based
[2] = tested on: Plasmodium falciparum; assay: Antimalarial activity against chloroquine-resistant Plasmodium falciparum TM91C235; assay type: functional, organism-based
[3] = tested on: Plasmodium falciparum; assay: Antimalarial activity against Plasmodium falciparum FcB1/Columbia erythrocytes […]; assay type: functional, organism-based
[4] = Cytotoxicity against human MRC5 cells; assay type: cell-based; conditions: read-out: CD50 (the source's name)
[5] = Selectivity index, ratio of CD50 for human MRC5 cells to IC50 for Plasmodium falciparum FcB1/Columbia erythrocytes; assay type: functional
[6] = tested on: Plasmodium falciparum; assay: Antimalarial activity against Plasmodium falciparum THAI; assay type: functional, organism-based
[7] = tested on: Plasmodium falciparum; assay: Antimalarial activity against chloroquine-resistant Plasmodium falciparum FcB1; assay type: functional, organism-based
[8] = tested on: Plasmodium falciparum; assay: Antimalarial activity against chloroquine-resistant Plasmodium falciparum K1; assay type: functional, organism-based
[9] = tested on: Plasmodium falciparum; assay: Antimalarial activity against chloroquine-sensitive Plasmodium falciparum D10 at 9 uM; assay type: functional
[10] = tested on: Plasmodium falciparum; assay: Antimalarial activity against chloroquine-resistant Plasmodium falciparum W2 at 9 uM; assay type: functional
[11] = biological target: Plasmepsin II (Plasmodium falciparum, UniProt P46925); assay: Inhibition of Plasmodium falciparum plasmepsin-2
Plasmepsin II, sequence (P46925 whole entry): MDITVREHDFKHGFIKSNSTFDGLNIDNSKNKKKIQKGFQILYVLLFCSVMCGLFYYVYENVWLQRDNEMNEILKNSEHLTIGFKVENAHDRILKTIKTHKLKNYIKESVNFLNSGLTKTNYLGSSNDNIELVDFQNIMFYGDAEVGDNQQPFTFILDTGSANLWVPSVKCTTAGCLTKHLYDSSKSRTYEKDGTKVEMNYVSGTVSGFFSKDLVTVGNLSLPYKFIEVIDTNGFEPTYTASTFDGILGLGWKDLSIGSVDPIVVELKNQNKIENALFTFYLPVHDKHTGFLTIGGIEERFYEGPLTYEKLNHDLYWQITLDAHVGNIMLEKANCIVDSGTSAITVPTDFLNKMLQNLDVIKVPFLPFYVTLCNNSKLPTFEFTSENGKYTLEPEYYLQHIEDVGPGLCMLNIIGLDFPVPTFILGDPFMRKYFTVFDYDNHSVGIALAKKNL

[12] = tested on: Plasmodium falciparum; assay: Antimalarial activity as relative mean survival time against Plasmodium falciparum at 40 mg/kg for 4 days; assay type: functional; conditions: 96 h
[13] = tested on: Plasmodium falciparum; assay: Antimalarial activity against Plasmodium falciparum FcB1R; conditions: read-out: ED50 (the source's name)
[14] = tested on: Plasmodium yoelii; assay: Antimalarial activity as reduced parasitaemia at day 4 against Plasmodium yoelii N67 infected Swiss mice (Mus musculus) compared to chloroquine; assay type: functional, N-67; design: scale not given: the % may be the effect or the level left
[15] = species on record: Homo sapiens; assay: (§1) Terminal half life in human; assay type: ADME, organism-based; conditions: in vivo
[16] = tested on: Plasmodium falciparum; assay: Antimalarial activity against Plasmodium falciparum NF54; conditions: NF-54
[17] = tested on: Plasmodium yoelii; assay: Antimalarial activity as mean survival time against Plasmodium yoelii N67 infected Swiss mice (Mus musculus); assay type: functional, N-67
[18] = as §1; assay type: ADME, organism-based; conditions: in vivo, read-out: beta t1/2 (converted)
[19] = tested on: Plasmodium berghei; assay: Gametocytocidal activity as infected mosquitoes against Plasmodium berghei at 10 uM/kg; assay type: functional
[20] = tested on: Plasmodium berghei; assay: Gametocytocidal activity as oocysts per mosquito against Plasmodium berghei; assay type: functional

CC(C)(C)NCc1c(Nc2ccnc3ccc(Cl)cc23)cc(O)cc1-c1ccc(Cl)cc1 showed an IC50 [1] of 0.3 ng/mL (≈ 0.643 nM) and an IC50 [2] of 0.3 ng/mL (≈ 0.643 nM).
In the case of CCCCCCCNCCCN1CCN(CCCNc2ccnc3cc(Cl)ccc23)CC1, the IC50 [3] is reported as 9.5 nM, the CC50 [4] is reported as < 3100 nM and the “Selectivity Index” value [5] is reported as <326.
O=C(CN1CCCCC1)Nc1cc(CN2CCOCC2)cc(Nc2ccnc3ccc(Cl)cc23)c1 gave an IC50 [6] of 12.8 nM, an IC50 [7] of 9.6 nM and an IC50 [8] of 12.4 nM.
COc1ccc(CNCc2cc(NC(=O)CN3CCCCC3)cc(Nc3ccnc4ccc(Cl)cc34)c2)cc1 showed an IC50 [7] of 4.4 nM.
Molecule O=C(CN1CCCCC1)Nc1cc(CN2CCN(c3ccccc3)CC2)cc(Nc2ccnc3ccc(Cl)cc23)c1 has an IC50 [7] of 5.5 nM.
Molecule CCCCNC(=O)C[C@H](O)[C@H](CC(C)C)NC(=O)[C@@H](NC(=O)CCC(=O)N[C@H](C(=O)N[C@H](CCCCN)C(=O)NCCCC(C)Nc1cc(OC)cc2cccnc12)C(C)C)[C@H](C)CC (stereo partly specified) has an Activity [9] of 20%, an Activity [10] of 40% and an IC50 [11] of 396000 nM.
For O=C(CN1CCCCC1)Nc1cc(COC(=O)CCCCCC2=CC(=O)c3ccccc3C2=O)cc(Nc2ccnc3ccc(Cl)cc23)c1, the survival at 40 mg/kg [12] was 178% and the EC50 [13] was 23 nM.
Molecule O=C(CN1CCCCC1)Nc1cc(CN2CCCCC2)cc(Nc2ccnc3ccc(Cl)cc23)c1 has an IC50 [6] of 6.7 nM, an IC50 [7] of 10 nM and an IC50 [8] of 8.1 nM.
For CCN(CC)CCCC(C)Nc1ccnc2cc(Cl)ccc12 (stereo unspecified) [CHLOROQUINE], the Activity [14] was 99.9%, the “beta t1/2” value [15] was 1 months and the IC50 [16] was 106 nM. For the same molecule, the MIC [16] was 0.39 µM (≈ 0.125 µg/mL) and the Survival [17] was 20 days.
Work on COc1cc(NC(C)CCCN)c2ncccc2c1 (stereo unspecified) [PRIMAQUINE] yielded a half-life [18] of 14 days, an Activity [19] of 28% and an Activity [20] of 2.6.
